Columns and labels:
NCI-H226 = assay: NCI drug screen, NCI-H226; type: cell-based, human; conditions: NCI-H226 (Non-Small Cell Lung Cancer); 1.00E−5 Molar
Procedure: (§1) In brief, cellular protein levels were determined after 48 hours of drug exposure by sulforhodamine B colorimetry. Through the use of a time 0 cell control, the cell growth can be determined for each cell line thus allowing calculations of the 50% growth inhibitory concentration (GI50), the total growth inhibition (TGI), and the 50% lethal concentration (LC50). Comparison to plates not exposed to drug permits determination of concentration and times of exposure conferring 50% net growth inhibition (GI50), TGI, and 50% cell kill (LC50).
(§2) The screening system in United State National Cancer Institute (NCI) is consisted of 60 kinds of different human cancer cells, which can be used to assay the growth-inhibiting ability or cell toxicity of a compound against various cancer and tumor at a certain concentration.

SK-MEL-2 = assay: NCI drug screen, SK-MEL-2; type: cell-based, human; conditions: SK-MEL-2 (Melanoma); 1.00E−5 Molar
Procedure: as §1, §2

RXF 393 = assay: NCI drug screen, RXF 393; type: cell-based, human; conditions: RXF 393 (Renal Cancer); 1.00E−5 Molar
Procedure: as §1, §2

T-47D = assay: NCI drug screen, T-47D; type: cell-based, human; conditions: T-47D (Breast Cancer); 1.00E−5 Molar
Procedure: as §1, §2

MCF7 = assay: NCI drug screen, MCF7; type: cell-based, human; conditions: MCF7 (Breast Cancer); 1.00E−5 Molar
Procedure: as §1, §2

UACC-62 = assay: NCI drug screen, UACC-62; type: cell-based, human; conditions: UACC-62 (Melanoma); 1.00E−5 Molar
Procedure: as §1, §2

MALME-3M = assay: NCI drug screen, MALME-3M; type: cell-based, human; conditions: MALME-3M (Melanoma); 1.00E−5 Molar
Procedure: as §1, §2

hTERT = assay: Secreted alkaline phosphatase (SEAP) assay, PhTERT-SEAP (H1299); type: cell-based; conditions: Homo sapiens, 24 hours; for activity at 1 µM: NCI-H1299, Conc. 1 μM, read-out: Relative SEAP activity (%); for activity at 10 µM: NCI-H1299, Conc. 10 μM; for activity at 10 µM / activity at 100 µM: read-out: Relative SEAP activity (%) (converted); for activity at 100 µM: NCI-H1299, Conc. 100 μM
How it was run: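 Stable H1299 clone carrying the −3338 to +1 bp hTERT promoter upstream of SEAP; ~10^4 cells/well treated with varying drug amounts for 24 h at 37° C. Media heat-treated 65° C. 10 min, mixed with diethanolamine/MgCl2/L-homoarginine buffer and 12 mM p-nitrophenyl phosphate final; SEAP activity taken as rate of A405 increase.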

U251 = assay: NCI drug screen, U251; type: cell-based, human; conditions: U251 (CNS Cancer); 1.00E−5 Molar
Procedure: as §1, §2

HCT-116 = assay: NCI drug screen, HCT-116; type: cell-based, human; conditions: HCT-116 (Colon Cancer); 1.00E−5 Molar
Procedure: as §1, §2

IGROV1 = assay: NCI drug screen, IGROV1; type: cell-based, human; conditions: IGROV1 (Ovarian Cancer); 1.00E−5 Molar
Procedure: as §1, §2

MOLT-4 = assay: NCI drug screen, MOLT-4; type: cell-based, human; conditions: MOLT-4 (Leukemia); 1.00E−5 Molar
Procedure: as §1, §2

LOX IMVI = assay: NCI drug screen, LOX IMVI; type: cell-based, human; conditions: LOX IMVI (Melanoma); 1.00E−5 Molar
Procedure: as §1, §2

ACHN = assay: NCI drug screen, ACHN; type: cell-based, human; conditions: ACHN (Renal Cancer); 1.00E−5 Molar
Procedure: as §1, §2

MDA-MB-468 = assay: NCI drug screen, MDA-MB-468; type: cell-based, human; conditions: MDA-MB-468 (Breast Cancer); 1.00E−5 Molar
Procedure: as §1, §2

SK-MEL-5 = assay: NCI drug screen, SK-MEL-5; type: cell-based, human; conditions: SK-MEL-5 (Melanoma); 1.00E−5 Molar
Procedure: as §1, §2

SNB-19 = assay: NCI drug screen, SNB-19; type: cell-based, human; conditions: SNB-19 (CNS Cancer); 1.00E−5 Molar
Procedure: as §1, §2

TK-10 = assay: NCI drug screen, TK-10; type: cell-based, human; conditions: TK-10 (Renal Cancer); 1.00E−5 Molar
Procedure: as §1, §2

SF-539 = assay: NCI drug screen, SF-539; type: cell-based, human; conditions: SF-539 (CNS Cancer); 1.00E−5 Molar
Procedure: as §1, §2

HOP-62 = assay: NCI drug screen, HOP-62; type: cell-based, human; conditions: HOP-62 (Non-Small Cell Lung Cancer); 1.00E−5 Molar
Procedure: as §1, §2

SF-295 = assay: NCI drug screen, SF-295; type: cell-based, human; conditions: SF-295 (CNS Cancer); 1.00E−5 Molar
Procedure: as §1, §2

K562 = assay: NCI drug screen, K562; type: cell-based, human; conditions: K562 (Leukemia); 1.00E−5 Molar
Procedure: as §1, §2

NCI-H522 = assay: NCI drug screen, NCI-H522; type: cell-based, human; conditions: NCI-H522 (Non-Small Cell Lung Cancer); 1.00E−5 Molar
Procedure: as §1, §2

CCRF-CEM = assay: NCI drug screen, CCRF-CEM; type: cell-based, human; conditions: CCRF-CEM (Leukemia); 1.00E−5 Molar
Procedure: as §1, §2

NCI/ADR-RES = assay: NCI drug screen, NCI/ADR-RES; type: cell-based, human; conditions: for Growth Percent: NCI/ADR-RES (Ovarian Cancer), 1.00E−5 Molar; for drug-resistance against adriamycin (ADR): human multiple drug-resistant cell NCI/ADR-RES
Procedure: as §1, §2

EKVX = assay: NCI drug screen, EKVX; type: cell-based, human; conditions: EKVX (Non-Small Cell Lung Cancer); 1.00E−5 Molar
Procedure: as §1, §2

Structure (SMILES)	Growth Percent (NCI-H226) [%]	Growth Percent (SK-MEL-2) [%]	Growth Percent (MCF7) [%]	Growth Percent (UACC-62) [%]	Growth Percent (MALME-3M) [%]	activity at 1 µM (hTERT) [%]	activity at 10 µM (hTERT) [%]	activity at 100 µM (hTERT) [%]	Growth Percent (U251) [%]	Growth Percent (HCT-116) [%]	Growth Percent (IGROV1) [%]	Growth Percent (MOLT-4) [%]	Growth Percent (LOX IMVI) [%]	Growth Percent (ACHN) [%]	Growth Percent (MDA-MB-468) [%]	Growth Percent (SK-MEL-5) [%]	Growth Percent (SNB-19) [%]	Growth Percent (TK-10) [%]	Growth Percent (SF-539) [%]	Growth Percent (HOP-62) [%]	other results
Cc1ccc(C(=O)Nc2ccc3c(c2NC(=O)c2ccc(C)cc2)C(=O)c2ccccc2C3=O)cc1 [CC-04, 1,2-bis-(4-methylbenzamido)-anthraquinone]	91.14	100.65	71.71	87.50	127.16	108 ± 9.03	97.1	30.9	91.73	78.55	78.71	89.63	84.41	112.43	104.17	94.04	103.91	124.91	97.26	105.23	Growth Percent (RXF 393): 88.25%; Growth Percent (T-47D): 100.00%; Growth Percent (SF-295): 110.81%; Growth Percent (K562): 107.54%; Growth Percent (NCI-H522): 72.05%; Growth Percent (CCRF-CEM): 79.02%
O=C(CCl)Nc1ccc2c(c1NC(=O)Cc1ccccc1)C(=O)c1ccccc1C2=O [CC-23, 1-[2-(phenyl)acetylamino]-2-(chloroacetamido)-anthraquinone]	80.49	−6.49	51.00	59.67	47.07	84.8 ± 3.12	9.49	7.43	66.17	67.55	41.03	11.40	36.29	79.64	51.02	51.32	124.27	120.81	107.09	115.67	Growth Percent (NCI/ADR-RES): 86.87%; drug-resistance against adriamycin (ADR) (NCI/ADR-RES): possessed drug-resistance against adriamycin (ADR); Growth Percent (EKVX): 102.08%; Growth Percent (SF-295): 98.48%; Growth Percent (NCI-H522): 43.37%; Growth Percent (CCRF-CEM): 33.97%
Cc1ccc(C(=O)Nc2c(NC(=O)CN3CCN(C)CC3)ccc3c2C(=O)c2ccccc2C3=O)cc1 [CC-43, 1-(4-methylbenzamido)-2-[2-(4-methylpiperazino)acetylamino]-anthraquinone]	93.87	123.64	31.79	−20.65	10.84	77.4 ± 1.5	13.4	3.15	22.38	8.37	112.20	26.04	1.24	49.87	7.43	41.30	68.75	101.93	62.68	75.21	Growth Percent (RXF 393): 68.84%; Growth Percent (T-47D): 52.62%; Growth Percent (NCI/ADR-RES): 66.74%; drug-resistance against adriamycin (ADR) (NCI/ADR-RES): possessed drug-resistance against adriamycin (ADR); Growth Percent (EKVX): 78.07%; Growth Percent (SF-295): 89.86%; Growth Percent (K562): −4.52%; Growth Percent (NCI-H522): 88.21%; Growth Percent (CCRF-CEM): 61.06%
Cc1ccc(C(=O)Nc2c(NC(=O)CN3CCCC3)ccc3c2C(=O)c2ccccc2C3=O)cc1 [CC-38, 1-(4-methylbenzamido)-2-[2-(tetrahydro-1H-1-pyrrolyl)acetylamino]-anthra quinone]	90.22	102.17	70.79	76.82	82.24	81.7 ± 4.8	59.1	3.93	82.17	58.46	106.07	48.20	80.62	82.23	69.27	61.74	108.22	86.85	81.29	113.43	Growth Percent (RXF 393): 63.80%; Growth Percent (T-47D): 44.33%; Growth Percent (NCI/ADR-RES): 50.86%; Growth Percent (EKVX): 65.93%; Growth Percent (SF-295): 68.97%; Growth Percent (K562): 40.86%; Growth Percent (NCI-H522): 103.02%; Growth Percent (CCRF-CEM): 39.61%
Cc1ccc(C(=O)Nc2c(NC(=O)CCl)ccc3c2C(=O)c2ccccc2C3=O)cc1 [CC-12, 1-(4-methylbenzamido)-2-(chloroacetamido)-anthraquinone]	−25.30	52.00	−79.28	−67.80	−22.41	110 ± 2.99	-2.49	-2.47	−44.02	−54.27	51.41	−23.17	−57.05	21.92	−83.42	−98.72	88.40	130.52	−31.42	−28.62	Growth Percent (T-47D): −49.46%; Growth Percent (NCI/ADR-RES): 72.17%; drug-resistance against adriamycin (ADR) (NCI/ADR-RES): possessed drug-resistance against adriamycin (ADR); Growth Percent (EKVX): 88.22%; Growth Percent (SF-295): 79.70%; Growth Percent (NCI-H522): 57.88%
